{"source": "patent US20110130380A1", "about": "“Heteroaryl Kinase Inhibitors” (priority 2009, published 2011)", "data": [{"molecular_target": "Cdk9/cyclinT1 (Homo sapiens, UniProt P50750)", "sequence (P50750 whole entry)": "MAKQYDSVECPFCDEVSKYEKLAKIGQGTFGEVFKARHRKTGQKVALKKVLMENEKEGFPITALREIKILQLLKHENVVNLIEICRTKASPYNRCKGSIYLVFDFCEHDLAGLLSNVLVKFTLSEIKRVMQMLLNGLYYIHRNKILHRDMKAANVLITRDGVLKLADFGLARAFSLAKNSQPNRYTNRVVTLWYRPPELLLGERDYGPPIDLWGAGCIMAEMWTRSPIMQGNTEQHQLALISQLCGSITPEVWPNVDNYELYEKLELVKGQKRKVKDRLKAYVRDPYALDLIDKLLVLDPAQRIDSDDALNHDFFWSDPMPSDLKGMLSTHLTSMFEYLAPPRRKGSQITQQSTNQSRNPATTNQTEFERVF", "sequence (O60563 whole entry partner)": "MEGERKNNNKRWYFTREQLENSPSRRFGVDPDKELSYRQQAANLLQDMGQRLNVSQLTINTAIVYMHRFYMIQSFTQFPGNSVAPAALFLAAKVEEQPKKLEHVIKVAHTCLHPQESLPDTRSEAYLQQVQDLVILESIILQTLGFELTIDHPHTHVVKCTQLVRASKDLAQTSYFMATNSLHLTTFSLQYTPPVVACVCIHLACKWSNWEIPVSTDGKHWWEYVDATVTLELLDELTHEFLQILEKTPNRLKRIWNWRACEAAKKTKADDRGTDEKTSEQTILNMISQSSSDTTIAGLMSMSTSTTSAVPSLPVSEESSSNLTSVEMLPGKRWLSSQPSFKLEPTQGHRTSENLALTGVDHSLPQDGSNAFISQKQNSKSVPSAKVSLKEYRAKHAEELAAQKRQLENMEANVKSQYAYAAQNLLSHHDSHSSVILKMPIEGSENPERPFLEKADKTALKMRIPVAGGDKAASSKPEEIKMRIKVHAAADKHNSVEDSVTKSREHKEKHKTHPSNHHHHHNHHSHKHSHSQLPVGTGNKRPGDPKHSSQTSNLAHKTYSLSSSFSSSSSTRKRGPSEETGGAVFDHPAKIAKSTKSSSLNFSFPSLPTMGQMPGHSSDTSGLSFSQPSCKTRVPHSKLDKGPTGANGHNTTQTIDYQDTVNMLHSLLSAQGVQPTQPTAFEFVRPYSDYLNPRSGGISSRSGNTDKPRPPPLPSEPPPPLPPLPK", "test": "Cdk9/cyclinT1 IMAP Protocol (fluorescence polarization kinase assay)", "conditions": "Cdk9_cyclinT1_IC50, Table V; generated using one of the two Cdk9/cyclinT1 assays (IMAP or Alpha Screen), not stated which; ATP 6 uM", "units": {"IC50": "nM"}, "values": [{"smiles": "O=C(Nc1cc(-c2cccc(NCC3CCOCC3)n2)c(Cl)cn1)[C@H]1CNC[C@@H](C(F)(F)F)C1", "note": "(racemic) [Example 148, (3R,5S)-/(3S,5R)-5-Trifluoromethyl-piperidine-3-carboxylic acid {5′-chloro-6-[(tetrahydro-pyran-4-ylmethyl)-amino]-[2,4′]bipyridinyl-2′-yl}-amide]", "IC50": "< 8"}, {"smiles": "O=C(Nc1cc(-c2cccc(NCC3CCOCC3)n2)c(Cl)cn1)[C@H]1CNC[C@H](C(F)(F)F)C1", "note": "(single isomer, unassigned) [Example 162]", "IC50": 10}, {"smiles": "C[C@@H]1CNC[C@H](C(=O)Nc2cc(-c3cccc(NCC4CCOCC4)n3)c(Cl)cn2)C1", "note": "(racemic) [Example 125, (3R,5S)-/(3S,5R)-5-Methyl-piperidine-3-carboxylic acid {5′-chloro-6-[(tetrahydro-pyran-4-ylmethyl)-amino]-[2,4′]bipyridinyl-2′-yl}-amide]", "IC50": 9}, {"smiles": "O=C(Nc1cc(-c2nc(NCC3CCOCC3)ccc2Cl)c(F)cn1)[C@@H]1CCCNC1", "note": "[Example 123, (R)-Piperidine-3-carboxylic acid {3-chloro-5′-fluoro-6-[(tetrahydro-pyran-4-ylmethyl)-amino]-[2,4′]bipyridinyl-2′-yl}-amide]", "IC50": "< 8"}, {"smiles": "CNCCC(=O)Nc1cc(-c2cccc(NCC3CCOCC3)n2)c(Cl)cn1", "note": "[Example 64, N-{5′-Chloro-6-[(tetrahydro-pyran-4-ylmethyl)-amino]-[2,4′]bipyridinyl-2′-yl}-3-methylamino-propionamide]", "IC50": 37}, {"smiles": "O=C(Nc1cc(-c2nc(NCC3CCOCC3)ccc2Cl)c(Cl)cn1)[C@@H]1CCCNC1", "note": "[Example 75]", "IC50": "< 8"}, {"smiles": "CC(C)(C)C(=O)Nc1cc(-c2cccc(NCC3CCOCC3)n2)c(Cl)cn1", "note": "[Example 72, N-{5′-Chloro-6-[(tetrahydro-pyran-4-ylmethyl)-amino]-[2,4′]bipyridinyl-2′-yl}-2,2-dimethyl-propionamide]", "IC50": 40}, {"smiles": "C[C@@H]1CC(CNc2cccc(-c3cc(NC(=O)[C@H]4CNCCO4)ncc3Cl)n2)C[C@H](C)O1", "note": "(stereo partly drawn) [Example 169, (R)-Morpholine-2-carboxylic acid {5′-chloro-6-[((2R,6S)-2,6-dimethyl-tetrahydro-pyran-4-ylmethyl)-amino]-[2,4′]bipyridinyl-2′-yl}-amide]", "IC50": 16}, {"smiles": "CC1(C)C[C@@H](CNc2cccc(-c3cc(NC(=O)[C@@H]4CCNC4)ncc3Cl)n2)CCO1", "note": "[Example 260, (R)-Pyrrolidine-3-carboxylic acid {5′-chloro-6-[((S)-2,2-dimethyl-tetrahydro-pyran-4-ylmethyl)-amino]-[2,4′]bipyridinyl-2′-yl}-amide]", "IC50": 1}, {"smiles": "C[C@H]1CNC[C@@H](C(=O)Nc2cc(-c3cccc(NCC4CCOCC4)n3)c(Cl)cn2)C1", "note": "(single isomer, unassigned) [Example 129]", "IC50": 13}, {"smiles": "O=C(Nc1cc(-c2cccc(NC[C@@H]3CCCOC3)n2)c(Cl)cn1)[C@@H]1CCCNC1", "note": "(single isomer, unassigned) [Example 79]", "IC50": "< 8"}, {"smiles": "CCS(=O)(=O)N[C@@H]1CC[C@H](C(=O)Nc2cc(-c3nc(NCC4CCOCC4)ccc3Cl)c(Cl)cn2)C1", "note": "[Example 113, (1S,3R)-3-Ethanesulfonylamino-cyclopentanecarboxylic acid {3,5′-dichloro-6-[(tetrahydro-pyran-4-ylmethyl)-amino]-[2,4′]bipyridinyl-2′-yl}-amide]", "IC50": "< 8"}, {"smiles": "C[C@@H]1CC[C@@H](C(=O)Nc2cc(-c3cccc(NCC4CCOCC4)n3)ccn2)CN1", "note": "(racemic) [Example 224, (3R,6R)-/(3S,6S)-6-Methyl-piperidine-3-carboxylic acid {6-[(tetrahydro-pyran-4-ylmethyl)-amino]-[2,4′]bipyridinyl-2′-yl}-amide]", "IC50": 2}, {"smiles": "C[C@H]1CC[C@H](C(=O)Nc2cc(-c3cccc(NC[C@@H]4CCOC(C)(C)C4)n3)c(Cl)cn2)CN1", "note": "(single isomer, unassigned) [Example 243]", "IC50": 2}, {"smiles": "CC(C)(C)OC(=O)N1CCC[C@H](C(=O)Nc2cc(-c3cccc(NCc4cccc(F)c4)n3)c(Cl)cn2)C1", "note": "[Example 5, (S)-3-[5′-Chloro-6-(3-fluoro-benzylamino)-[2,4′]bipyridinyl-2′-ylcarbamoyl]-piperidine-1-carboxylic acid tert-butyl ester]", "IC50": 62}, {"smiles": "O=C(Nc1cc(-c2nc(NCC3CCOCC3)ccc2Cl)c(F)cn1)[C@H]1CNCCO1", "note": "[Example 124, (R)-Morpholine-2-carboxylic acid {3-chloro-5′-fluoro-6-[(tetrahydro-pyran-4-ylmethyl)-amino]-[2,4′]bipyridinyl-2′-yl}-amide]", "IC50": 30}, {"smiles": "CN1CCCCC(C(=O)Nc2cc(-c3nc(NCC4CCOCC4)ccc3Cl)c(Cl)cn2)C1", "note": "(centres unmarked) [Example 200, 1-Methyl-azepane-3-carboxylic acid {3,5′-dichloro-6-[(tetrahydro-pyran-4-ylmethyl)-amino]-[2,4′]bipyridinyl-2′-yl}-amide]", "IC50": 31}, {"smiles": "CCN1CCC[C@@H](C(=O)Nc2cc(-c3cccc(NCC4CCOCC4)n3)c(Cl)cn2)C1", "note": "(single isomer, unassigned) [Example 56]", "IC50": 81}, {"smiles": "CC1(C)CC(CNc2cccc(-c3cc(NC(=O)[C@@H]4CCNC4)ncc3Cl)n2)CCO1", "note": "(stereo partly drawn) [Example 188, (R)-Pyrrolidine-3-carboxylic acid {5′-chloro-6-[(2,2-dimethyl-tetrahydro-pyran-4-ylmethyl)-amino]-[2,4′]bipyridinyl-2′-yl}-amide]", "IC50": 1}, {"smiles": "O=C(Nc1cc(-c2cccc(NCC3CCOCC3)n2)c(Cl)cn1)C1CCCCNC1", "note": "(centres unmarked) [Example 193, Azepane-3-carboxylic acid {5′-chloro-6-[(tetrahydro-pyran-4-ylmethyl)-amino]-[2,4′]bipyridinyl-2′-yl}-amide]", "IC50": 2}, {"smiles": "O=C(Nc1cc(-c2cccc(NCC3(F)CCOCC3)n2)c(Cl)cn1)[C@@H]1CCCNC1", "note": "[Example 237, (R)-Piperidine-3-carboxylic acid {5′-chloro-6-[(4-fluoro-tetrahydro-pyran-4-ylmethyl)-amino]-[2,4′]bipyridinyl-2′-yl}-amide]", "IC50": 1}, {"smiles": "O=C(Nc1cc(-c2nc(NCC3CCOCC3)ccc2Cl)ccn1)[C@@H]1CCCNC1", "note": "[Example 167, (R)-Piperidine-3-carboxylic acid {3-chloro-6-[(tetrahydro-pyran-4-ylmethyl)-amino]-[2,4′]bipyridinyl-2′-yl}-amide]", "IC50": 4}, {"smiles": "O=C(Nc1cc(-c2cccc(NCC3CCOCC3)n2)c(Cl)cn1)C1CNCC(F)C1", "note": "(centres unmarked) [Example 168, 5-Fluoro-piperidine-3-carboxylic acid {5′-chloro-6-[(tetrahydro-pyran-4-ylmethyl)-amino]-[2,4′]bipyridinyl-2′-yl}-amide]", "IC50": 6}, {"smiles": "C[C@@H]1CC[C@@H](C(=O)Nc2cc(-c3cccc(NCC4CCOCC4)n3)c(Cl)cn2)CN1", "note": "(racemic) [Example 127, (3R,6R)-/(3S,6S)-6-methyl-piperidine-3-carboxylic acid {5′-chloro-6-[(tetrahydro-pyran-4-ylmethyl)-amino]-[2,4′]bipyridinyl-2′-yl}-amide]", "IC50": 9}]}, {"molecular_target": "Cdk9/cyclinT1 (Homo sapiens, UniProt P50750)", "test": "Cdk9/cyclinT1 IMAP Protocol (fluorescence polarization kinase assay)", "conditions": "Cdk9_cyclinT1_IC50, generated using one of the two Cdk9/cyclinT1 assays (IMAP or Alpha Screen), not specified per value; ATP 6 uM", "units": {"IC50": "nM"}, "values": [{"smiles": "Cc1ncc(-c2cc(NC(=O)C(C)C)ncc2Cl)cc1NCC1CCOCC1", "note": "[Example 310, N-{5′-Chloro-6-methyl-5-[(tetrahydro-pyran-4-ylmethyl)-amino]-[3,4′]bipyridinyl-2′-yl}-isobutyramide]", "IC50": 147}, {"smiles": "COc1cncc(-c2cc(NC(=O)[C@@H]3CCCNC3)ncc2Cl)c1", "note": "[Example 307, (R)-Piperidine-3-carboxylic acid (5′-chloro-5-methoxy-[3,4′]bipyridinyl-2′-yl)-amide]", "IC50": 239}]}]}
